In US9725449B2, “Tricyclic compounds as anticancer agents” (BRISTOL-MYERS SQUIBB COMPANY, priority 2015, dated 2017):

Target: BRD4 (Homo sapiens, UniProt O60885)
Assay: Time resolved fluorescence resonance energy transfer (TR-FRET) binding assay, bromodomain BRD4
Conditions: one of the FRET assays described; read-out: FRET BRD4 IC50

`[2H]C([2H])([2H])c1nnn(C)c1-c1cnc2c3c(OC)ncc(S(C)(=O)=O)c3n([C@H](c3ccc(F)cc3)C3CCC(F)(F)CC3)c2c1` [Example 95, 8-[(S)-(4,4-Difluorocyclohexyl)(4-fluorophenyl)methyl]-10-methanesulfonyl-13-methoxy-5-[4-(^2H3)methyl-1-methyl-1H-1,2,3-triazol-5-yl]-3,8,12-triazatricyclo[7.4.0.0^2,^7]trideca-1(13),2(7),3,5,9,11-hexaene] and `[2H]C([2H])([2H])c1nnn(C)c1-c1cnc2c3c(OC)ncc(S(C)(=O)=O)c3n(C(c3ncccc3F)C3CCOCC3)c2c1` (stereo not drawn) [Example 64, 8-[(3-Fluoropyridin-2-yl)(oxan-4-yl)methyl]-10-methanesulfonyl-13-methoxy-5-[4-(^2H3)methyl-1-methyl-1H-1,2,3-triazol-5-yl]-3,8,12-triazatricyclo[7.4.0.0^2,^7]trideca-1(13),2(7),3,5,9,11-hexaene] cannot be ordered by IC50: under 10 nM for the first, under 1 nM for the second.

`[2H]C([2H])([2H])c1nnn(C)c1-c1cnc2c3ccc(-c4c(C([2H])([2H])[2H])nnn4C)nc3n([C@H](c3ccccc3F)C3CCOCC3)c2c1` [Example 232, 8-[(S)-(2-Fluorophenyl)(oxan-4-yl)methyl]-5,11-bis[4-(^2H3)methyl-1-methyl-1H-1,2,3-triazol-5-yl]-3,8,10-triazatricyclo[7.4.0.0^2,^7]trideca-1(13),2(7),3,5,9,11-hexaene] and `[2H]C([2H])([2H])c1nnn(C)c1-c1cnc2c3ccc(C(C)(C)O)nc3n([C@H](c3ccccc3F)C3CCOCC3)c2c1` [Example 241, 2-{8-[(S)-(2-Fluorophenyl)(oxan-4-yl)methyl]-5-[4-(^2H3)methyl-1-methyl-1H-1,2,3-triazol-5-yl]-3,8,10-triazatricyclo[7.4.0.0^2,^7]trideca-1(13),2(7),3,5,9,11-hexaen-11-yl}propan-2-ol] cannot be ordered by IC50: under 10 nM for the first, under 10 nM for the second.

`Cc1nnn(C)c1-c1cnc2c3ccc(NC(=O)C4CC4)nc3n([C@H](c3ccccc3F)C3CCOCC3)c2c1` [Example 276, N-[5-(Dimethyl-1H-1,2,3-triazol-5-yl)-8-[(S)-(2-fluorophenyl)(oxan-4-yl)methyl]-3,8,10-triazatricyclo[7.4.0.0^2,^7]trideca-1(13),2(7),3,5,9,11-hexaen-11-yl]cyclopropanecarboxamide] and `Cc1nnn(C)c1-c1cnc2c3ccc(NC(=O)C(C)(C)C)nc3n([C@H](c3ccccc3)C3CCOCC3)c2c1` [Example 207, N-[5-(Dimethyl-1H-1,2,3-triazol-5-yl)-8-[(S)-oxan-4-yl(phenyl)methyl]-3,8,10-triazatricyclo[7.4.0.0^2,^7]trideca-1(9),2(7),3,5,10,12-hexaen-11-yl]-2,2-dimethylpropanamide] cannot be ordered by IC50: under 10 nM for the first, under 10 nM for the second.

`Cc1nnn(C)c1-c1cnc2c3c(N(C)C)ncc(Cl)c3n([C@H](c3ccccc3)C3CCOCC3)c2c1` [Example 41, 10-Chloro-5-(dimethyl-1H-1,2,3-triazol-5-yl)-N,N-dimethyl-8-[(S)-oxan-4-yl(phenyl)methyl]-3,8,12-triazatricyclo[7.4.0.0^2,^7]trideca-1(13),2(7),3,5,9,11-hexaen-13-amine] and `COc1ncc(Br)c2c1c1ncc(-c3c(C)nnn3C)cc1n2[C@H](c1ccccc1)C1CCOCC1` [Example 38, 10-Bromo-5-(dimethyl-1H-1,2,3-triazol-5-yl)-13-methoxy-8-[(S)-oxan-4-yl(phenyl)methyl]-3,8,12-triazatricyclo[7.4.0.0^2,^7]trideca-1(13),2(7),3,5,9,11-hexaene] cannot be ordered by IC50: under 1 nM for the first, under 10 nM for the second.

`CCOP(=O)(O)CCNc1ccc2c3ncc(-c4c(C)nnn4C)cc3n([C@H](c3ccccc3)C3CCOCC3)c2n1` [Example 220, (2-{[5-(Dimethyl-1H-1,2,3-triazol-5-yl)-8-[(S)-oxan-4-yl(phenyl)methyl]-3,8,10-triazatricyclo[7.4.0.0^2,^7]trideca-1(9),2(7),3,5,10,12-hexaen-11-yl]amino}ethyl)(ethoxy)phosphinic acid] and `Cc1nnn(C)c1-c1cnc2c3c(S(C)(=O)=O)nccc3n([C@H](c3ccccc3)C3CCOCC3)c2c1` [Example 33, 5-(Dimethyl-1H-1,2,3-triazol-5-yl)-13-methanesulfonyl-8-[(S)-oxan-4-yl(phenyl)methyl]-3,8,12-triazatricyclo[7.4.0.0^2,^7]trideca-1(13),2(7),3,5,9,11-hexaene] cannot be ordered by IC50: under 1 nM for the first, under 1 nM for the second.

`Cc1nnn(C)c1-c1cnc2c3ccnc(N4CCOCC4)c3n([C@H](c3ccccc3)C3CCOCC3)c2c1` [Example 7, 5-(Dimethyl-1H-1,2,3-triazol-5-yl)-10-(morpholin-4-yl)-8-[(S)-oxan-4-yl(phenyl)methyl]-3,8,11-triazatricyclo[7.4.0.0^2,^7]trideca-1(13),2(7),3,5,9,11-hexaene] and `CSc1nccc2c3ncc(-c4c(C)nnn4C)cc3n([C@H](c3ccccc3F)C3CCOCC3)c12` [Example 31, 5-(Dimethyl-1H-1,2,3-triazol-5-yl)-8-[(S)-(2-fluorophenyl)(oxan-4-yl)methyl]-10-(methylsulfanyl)-3,8,11-triazatricyclo[7.4.0.0^2,^7]trideca-1(13),2(7),3,5,9,11-hexaene] cannot be ordered by IC50: under 10 nM for the first, under 10 nM for the second.

`COc1nnn(C)c1-c1cnc2c3ccc(N4CCN(C)CC4)nc3n([C@H](c3ccccc3F)C3CCOCC3)c2c1` [Example 254, 8-[(S)-(2-Fluorophenyl)(oxan-4-yl)methyl]-5-(4-methoxy-1-methyl-1H-1,2,3-triazol-5-yl)-11-(4-methylpiperazin-1-yl)-3,8,10-triazatricyclo[7.4.0.0^2,^7]trideca-1(13),2(7),3,5,9,11-hexaene] and `COc1nnn(C)c1-c1cnc2c3ccc(N4CCS(=O)(=O)CC4)nc3n([C@H](c3ccccc3F)C3CCOCC3)c2c1` [Example 256, 4-{8-[(S)-(2-Fluorophenyl)(oxan-4-yl)methyl]-5-(4-methoxy-1-methyl-1H-1,2,3-triazol-5-yl)-3,8,10-triazatricyclo[7.4.0.0^2,^7]trideca-1(13),2(7),3,5,9,11-hexaen-11-yl}-1λ^6,4-thiomorpholine-1,1-dione] cannot be ordered by IC50: under 1 nM for the first, under 10 nM for the second.

`COc1ncc(S(C)(=O)=O)c2c1c1ncc(-c3c(C)noc3C)cc1n2[C@H](c1ccc(F)cc1)C1CCOCC1` [Example 49, 5-(Dimethyl-1,2-oxazol-4-yl)-8-[(S)-(4-fluorophenyl)(oxan-4-yl)methyl]-10-methanesulfonyl-13-methoxy-3,8,12-triazatricyclo[7.4.0.0^2,^7]trideca-1(13),2(7),3,5,9,11-hexaene] and `Cc1noc(C)c1-c1cnc2c3cnc(Cl)cc3n(C(c3ccc(Cl)cn3)C3CCOCC3)c2c1` (single isomer, unassigned) [Example 327] cannot be ordered by IC50: under 1 nM for the first, under 1500 nM for the second.

`[2H]C([2H])([2H])c1nnn(C)c1-c1cnc2c3c(OCCCF)ncc(S(C)(=O)=O)c3n([C@H](c3ccccc3F)C3CCOCC3)c2c1` [Example 85, 8-[(S)-(2-Fluorophenyl)(oxan-4-yl)methyl]-13-(3-fluoropropoxy)-10-methanesulfonyl-5-[4-(^2H3)methyl-1-methyl-1H-1,2,3-triazol-5-yl]-3,8,12-triazatricyclo[7.4.0.0^2,^7]trideca-1(13),2(7),3,5,9,11-hexaene] and `[2H]C([2H])([2H])c1nnn(C)c1-c1cnc2c3ccc(S(C)(=O)=O)nc3n([C@H](c3ccccc3F)C3CCOCC3)c2c1` [Example 235, 8-[(S)-(2-Fluorophenyl)(oxan-4-yl)methyl]-11-methanesulfonyl-5-[4-(^2H3)methyl-1-methyl-1H-1,2,3-triazol-5-yl]-3,8,10-triazatricyclo[7.4.0.0^2,^7]trideca-1(13),2(7),3,5,9,11-hexaene] cannot be ordered by IC50: under 1 nM for the first, under 10 nM for the second.

`[2H]C([2H])([2H])c1nnn(C)c1-c1cnc2c3ccc(N4CCN(C([2H])([2H])[2H])CC4)nc3n([C@H](c3ccccc3)C3CCOCC3)c2c1` [Example 249, 5-[4-(^2H3)Methyl-1-methyl-1H-1,2,3-triazol-5-yl]-11-[4-(^2H3)methylpiperazin-1-yl]-8-[(S)-oxan-4-yl(phenyl)methyl]-3,8,10-triazatricyclo[7.4.0.0^2,^7]trideca-1(13),2(7),3,5,9,11-hexaene] and `[2H]C([2H])([2H])c1nnn(C)c1-c1cnc2c3cnc(OC)cc3n([C@H](c3ccccc3)C3CCOCC3)c2c1` [Example 287, 11-Methoxy-5-[4-(^2H3)methyl-1-methyl-1H-1,2,3-triazol-5-yl]-8-[(S)-oxan-4-yl(phenyl)methyl]-3,8,12-triazatricyclo[7.4.0.0^2,^7]trideca-1(9),2(7),3,5,10,12-hexaene] cannot be ordered by IC50: under 10 nM for the first, under 1 nM for the second.

`[2H]C([2H])([2H])c1nnn(C)c1-c1nc2c(cc1F)c1ncc(C(C)(C)O)cc1n2[C@H](c1ccccc1)C1CCOCC1` [Example 361, 2-{12-Fluoro-11-[4-(^2H3)methyl-1-methyl-1H-1,2,3-triazol-5-yl]-8-[(S)-oxan-4-yl(phenyl)methyl]-3,8,10-triazatricyclo[7.4.0.0^2,^7]trideca-1(9),2(7),3,5,10,12-hexaen-5-yl}propan-2-ol] and `[2H]C([2H])([2H])c1nnn(C)c1-c1cnc2c3cnc(OCC4CC4)cc3n([C@H](c3ccccc3)C3CCOCC3)c2c1` [Example 288, 11-(Cyclopropylmethoxy)-5-[4-(^2H3)methyl-1-methyl-1H-1,2,3-triazol-5-yl]-8-[(S)-oxan-4-yl(phenyl)methyl]-3,8,12-triazatricyclo[7.4.0.0^2,^7]trideca-1(9),2(7),3,5,10,12-hexaene] cannot be ordered by IC50: under 10 nM for the first, under 1 nM for the second.

`[2H]C([2H])([2H])c1nnn(C)c1-c1cnc2c3c(NCC(F)(F)F)cncc3n(C(c3ncccc3F)C3CCOCC3)c2c1` (stereo not drawn) [Example 303, 8-[(3-Fluoropyridin-2-yl)(oxan-4-yl)methyl]-5-[4-(^2H3)methyl-1-methyl-1H-1,2,3-triazol-5-yl]-N-(2,2,2-trifluoroethyl)-3,8,11-triazatricyclo[7.4.0.0^2,^7]trideca-1(9),2(7),3,5,10,12-hexaen-13-amine] and `COc1nccc2c1c1ncc(-c3c(C)nnn3C)cc1n2[C@H](c1ccccc1F)C1CCOCC1` [Example 30, 5-(Dimethyl-1H-1,2,3-triazol-5-yl)-8-[(S)-(2-fluorophenyl)(oxan-4-yl)methyl]-13-methoxy-3,8,12-triazatricyclo[7.4.0.0^2,^7]trideca-1(9),2(7),3,5,10,12-hexaene] cannot be ordered by IC50: under 10 nM for the first, under 1 nM for the second.
